The results in this text go back to PubChem BioAssay AID256 (DTP/NCI, 2004).

Structures are written as SMILES. Values joined by “and” are separate entries in the source; they are usually repeats but may differ in a detail not shown here. Equal entries are not always repeated. Inconclusive results and toxic doses are left out.

The test system of the test is CD2F1 mice, L1210 leukemia ip, survival T/C. Briefly: NCI In Vivo Anticancer Drug Screen. Data for tumor model L1210 Leukemia (intraperitoneal) in CD2F1 (CDF1) mice. The following applies: higher = longer survival. The method, boiled down:
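Implant tumor; dose compound or vehicle; measure endpoint in both groups; report treated divided by control.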

Where [1] appears, read: endpoint: mean survival time, dose: 50.0 mg/kg/injection, schedule: Q01DX009 (ip), vehicle: Klucel (hydroxypropylcellulose) (HPC).
[2] abbreviates: endpoint: mean survival time, dose: 100.0 mg/kg/injection, schedule: Q01DX009 (ip), vehicle: Klucel (hydroxypropylcellulose) (HPC).
Setting [3] is: endpoint: mean survival time, dose: 200.0 mg/kg/injection, schedule: Q01DX009 (ip), vehicle: Klucel (hydroxypropylcellulose) (HPC).
Where [4] appears, read: endpoint: mean survival time, dose: 100.0 mg/kg/injection, schedule: Q01DX001 (ip), vehicle: saline.
The mark [5] stands for this setting: endpoint: mean survival time, dose: 100.0 mg/kg/injection, schedule: Q04DX003 (ip), vehicle: saline with Tween-80.
Setting [6] is: endpoint: mean survival time, dose: 200.0 mg/kg/injection, schedule: Q04DX003 (ip), vehicle: saline with Tween-80.
Setting [7] is: endpoint: mean survival time, dose: 400.0 mg/kg/injection, schedule: Q04DX003 (ip), vehicle: saline with Tween-80.
Setting [8] is: endpoint: mean survival time, dose: 50.0 mg/kg/injection, schedule: Q01DX009 (ip), vehicle: saline.
[9] abbreviates: endpoint: mean survival time, dose: 100.0 mg/kg/injection, schedule: Q01DX009 (ip), vehicle: saline.
Where [10] appears, read: endpoint: mean survival time, dose: 200.0 mg/kg/injection, schedule: Q01DX009 (ip), vehicle: saline with Tween-80.
[11] abbreviates: endpoint: mean survival time, dose: 400.0 mg/kg/injection, schedule: Q01DX009 (ip), vehicle: saline with Tween-80.
The mark [12] stands for this setting: endpoint: mean survival time, dose: 25.0 mg/kg/injection, schedule: Q04DX003 (ip), vehicle: saline with Tween-80.
The mark [13] stands for this setting: endpoint: mean survival time, dose: 50.0 mg/kg/injection, schedule: Q04DX003 (ip), vehicle: saline with Tween-80.
Setting [14] is: endpoint: mean survival time, dose: 100.0 mg/kg/injection, schedule: Q01DX009 (ip), vehicle: saline with Tween-80.

For the compound `C[C@]12CCC(=O)C(O)=C1CC[C@@H]1[C@@H]2CC[C@]2(C)C(=O)CC[C@@H]12`, the T/C is 103 % of control (endpoint: mean survival time, dose: 12.5 mg/kg/injection, schedule: Q01DX009 (ip), vehicle: Klucel (hydroxypropylcellulose) (HPC)); 97 % of control (endpoint: mean survival time, dose: 25.0 mg/kg/injection, schedule: Q01DX009 (ip), vehicle: Klucel (hydroxypropylcellulose) (HPC)); 104 % of control under setting [1]; 98 % of control under setting [2]; 91 % of control under setting [3]; 97 % of control (endpoint: mean survival time, dose: 400.0 mg/kg/injection, schedule: Q01DX009 (ip), vehicle: Klucel (hydroxypropylcellulose) (HPC)).
Turning to `CCCCCC(=O)/C=C/Sc1n[nH]c(=O)[nH]c1=O`, the T/C runs as follows: (endpoint: mean survival time, dose: 12.5 mg/kg/injection, schedule: Q01DX005 (ip), vehicle: distilled water + Tween-80) 96 % of control; (endpoint: mean survival time, dose: 25.0 mg/kg/injection, schedule: Q01DX005 (ip), vehicle: distilled water + Tween-80) 100 % of control; (endpoint: mean survival time, dose: 50.0 mg/kg/injection, schedule: Q01DX005 (ip), vehicle: distilled water + Tween-80) 104 % of control.
Turning to `CCOC(=O)c1[nH]c(=S)[nH]c1C(=O)OCC`, the T/C under setting [4] is 100 % of control.
Consider `NC(=S)N/N=C/c1cc(Cl)c2nc(-c3ccccc3)ccc2c1`, for which the T/C was 104 % of control under setting [5], 102 % of control under setting [6] and 104 % of control under setting [7].
On to `COc1ccc(CN2CCCNCC2)cc1`, for which the T/C (endpoint: mean survival time, dose: 12.5 mg/kg/injection, schedule: Q01DX005 (ip), vehicle: water) is 95 % of control; the T/C (endpoint: mean survival time, dose: 25.0 mg/kg/injection, schedule: Q01DX005 (ip), vehicle: water) was 95 % of control; the T/C (endpoint: mean survival time, dose: 50.0 mg/kg/injection, schedule: Q01DX005 (ip), vehicle: water) is 97 % of control; the T/C (endpoint: mean survival time, dose: 100.0 mg/kg/injection, schedule: Q01DX005 (ip), vehicle: water) is 101 % of control; the T/C (endpoint: mean survival time, dose: 200.0 mg/kg/injection, schedule: Q01DX005 (ip), vehicle: water) was 95 % of control.
As for `COc1ccc(COC(=O)Oc2ccccc2)cc1OC`, the T/C was 93 % of control (endpoint: mean survival time, dose: 100.0 mg/kg/injection, schedule: Q04DX002 (ip), vehicle: saline with Tween-80); 101 % of control (endpoint: mean survival time, dose: 200.0 mg/kg/injection, schedule: Q04DX002 (ip), vehicle: saline with Tween-80); 96 % of control (endpoint: mean survival time, dose: 400.0 mg/kg/injection, schedule: Q04DX002 (ip), vehicle: saline with Tween-80).
For `CCCC1OC(C)CC(C)(C)O1` (configuration not stated), the T/C reads like this: under setting [8], 94 % of control; under setting [9], 110 % of control; (endpoint: mean survival time, dose: 200.0 mg/kg/injection, schedule: Q01DX009 (ip), vehicle: saline) 90 % of control.
On to `CCOC(=O)c1sc(=S)[nH]c1C`, for which the T/C was 89 % of control under setting [10] and 87 % of control under setting [11].
Take `CC(=O)CC(C)=O`: the T/C is 103 % of control (endpoint: mean survival time, dose: 100.0 mg/kg/injection, schedule: Q04DX003 (ip), vehicle: saline); 94 % of control (endpoint: mean survival time, dose: 200.0 mg/kg/injection, schedule: Q04DX003 (ip), vehicle: saline); 100 % of control (endpoint: mean survival time, dose: 400.0 mg/kg/injection, schedule: Q04DX003 (ip), vehicle: saline).
Turning to `CC12CCC3C4CCC(=O)C=C4CCC3C1CCC2O` (configuration not stated), the T/C was 101 % of control under setting [1], 96 % of control under setting [2] and 101 % of control under setting [3].
On to `CCN(CC)C1=CC(=O)c2ccccc2C1=O`, for which the T/C by setting is: under setting [12], 102 % of control; under setting [13], 96 % of control; under setting [5], 103 % of control.
`NC(=S)N/N=C\c1nccc2c(N)cccc12`: the T/C is 124 % of control (endpoint: mean survival time, dose: 12.5 mg/kg/injection, schedule: Q01DX009 (ip), vehicle: saline with Tween-80); 124 % of control (endpoint: mean survival time, dose: 25.0 mg/kg/injection, schedule: Q01DX009 (ip), vehicle: saline with Tween-80); 161 % of control (endpoint: mean survival time, dose: 50.0 mg/kg/injection, schedule: Q01DX009 (ip), vehicle: saline with Tween-80); 121 % of control and 124 % of control (endpoint: mean survival time, dose: 75.0 mg/kg/injection, schedule: Q01DX009 (ip), vehicle: saline with Tween-80).
In the case of `CCCCNC(=O)CC(C)C(=O)O` (configuration not stated), the T/C was 102 % of control under setting [5], 98 % of control under setting [6] and 102 % of control under setting [7].
Turning to `O=S1(=O)CCC2C1C1(Cl)C(Cl)=C(Cl)C2(Cl)C1(Cl)Cl` (configuration not stated), the T/C runs as follows: (endpoint: mean survival time, dose: 12.5 mg/kg/injection, schedule: Q01DX009 (ip), vehicle: saline sonified) 104 % of control; (endpoint: mean survival time, dose: 12.5 mg/kg/injection, schedule: Q04DX003 (ip), vehicle: saline with Tween-80) 103 % of control; (endpoint: mean survival time, dose: 25.0 mg/kg/injection, schedule: Q01DX009 (ip), vehicle: saline sonified) 103 % of control; under setting [12], 97 % of control; under setting [13], 98 % of control.
For `Cc1[nH]c2cc(Cl)ccc2c1CC(=O)O`, the T/C was 101 % of control (endpoint: mean survival time, dose: 100.0 mg/kg/injection, schedule: Q01DX001 (ip), vehicle: other); 98 % of control (endpoint: mean survival time, dose: 200.0 mg/kg/injection, schedule: Q01DX001 (ip), vehicle: other); 98 % of control (endpoint: mean survival time, dose: 400.0 mg/kg/injection, schedule: Q01DX001 (ip), vehicle: other).
Consider `CNC1(Cc2ccc(F)cc2)CCC1`, for which the T/C (endpoint: mean survival time, dose: 25.0 mg/kg/injection, schedule: Q01DX009 (ip), vehicle: saline) was 100 % of control; the T/C under setting [8] is 102 % of control; the T/C under setting [9] is 100 % of control.
As for `COc1cccc(OC)c1C(c1c(OC)cccc1OC)c1c(OC)cccc1OC`, the T/C runs as follows: under setting [14], 98 % of control; under setting [10], 103 % of control; under setting [11], 102 % of control.
For the compound `O=C(O)c1c(F)c(F)c(F)c(Br)c1F`, the T/C under setting [5] is 93 % of control and the T/C under setting [6] was 93 % of control.
Take `COc1ccc(C(=Nc2ccc(C)cc2)c2ccc([N+](=O)[O-])cc2)cc1`: the T/C by setting is: under setting [14], 94 % of control; under setting [5], 98 % of control; under setting [10], 98 % of control; under setting [6], 98 % of control; under setting [11], 96 % of control; under setting [7], 98 % of control.
With `CC(=O)O[C@H]1CC[C@H]2[C@@H]3CCC4=C(Cl)C(=O)CC[C@]4(C)[C@H]3CC[C@]12C`, the T/C is 96 % of control under setting [14]; 97 % of control under setting [5]; 94 % of control under setting [10]; 96 % of control under setting [6]; 94 % of control under setting [11]; 103 % of control under setting [7].
Consider `O=C(C[n+]1ccccc1)CC(O)(C(F)(F)F)C(F)(F)F`, for which the T/C reads like this: under setting [14], 105 % of control; under setting [10], 103 % of control.
For the compound `C#CCOCCCC(=O)O`, the T/C (endpoint: mean survival time, dose: 100.0 mg/kg/injection, schedule: Q04DX003 (ip), vehicle: acetone) was 101 % of control; the T/C (endpoint: mean survival time, dose: 200.0 mg/kg/injection, schedule: Q04DX003 (ip), vehicle: acetone) was 101 % of control; the T/C (endpoint: mean survival time, dose: 400.0 mg/kg/injection, schedule: Q04DX003 (ip), vehicle: acetone) was 95 % of control.
In the case of `CCOc1ccc(-c2nc3ccc(-c4nc5ccc(N6CCN(C)CC6)cc5[nH]4)cc3[nH]2)cc1`, the T/C (endpoint: median survival time, dose: 0.75 mg/kg/injection, schedule: Q01DX009 (ip), vehicle: saline) was 112 % of control; the T/C (endpoint: median survival time, dose: 0.75 mg/kg/injection, schedule: Q01DX009 (ip), vehicle: suspension in saline) was 94 % of control; the T/C (endpoint: median survival time, dose: 1.5 mg/kg/injection, schedule: Q01DX009 (ip), vehicle: saline) was 112 % of control; the T/C (endpoint: median survival time, dose: 1.5 mg/kg/injection, schedule: Q01DX009 (ip), vehicle: suspension in saline) is 95 % of control; the T/C (endpoint: median survival time, dose: 3.0 mg/kg/injection, schedule: Q01DX009 (ip), vehicle: suspension in saline) was 104 % of control; the T/C (endpoint: median survival time, dose: 6.0 mg/kg/injection, schedule: Q01DX009 (ip), vehicle: suspension in saline) is 105 % of control. Moreover, the T/C (endpoint: median survival time, dose: 12.0 mg/kg/injection, schedule: Q01DX009 (ip), vehicle: suspension in saline) was 104 % of control; the T/C (endpoint: median survival time, dose: 24.0 mg/kg/injection, schedule: Q01DX009 (ip), vehicle: saline) was 118 % of control; the T/C (endpoint: median survival time, dose: 24.0 mg/kg/injection, schedule: Q01DX009 (ip), vehicle: suspension in saline) was 117 % of control.
In the case of `O=C(O)CCC(=O)CCC(=O)c1ccc2ccccc2c1`, the T/C was 98 % of control under setting [4]; 98 % of control (endpoint: mean survival time, dose: 200.0 mg/kg/injection, schedule: Q01DX001 (ip), vehicle: saline); 95 % of control (endpoint: mean survival time, dose: 400.0 mg/kg/injection, schedule: Q01DX001 (ip), vehicle: saline).
